Read-outs that look alike come from different tables or passages of the source.
Key:
synthetic Aβ 1-40 = molecular target: T1, synthetic Aβ 1-40 (Homo sapiens, UniProt P05067); assay: Competition binding assay ([3H]PIB as radioligand)
T1 construct: using synthetic Aβ 1-40 in 2.7 nM of
Method: Competition binding was performed in 384-well FB filter plates using synthetic Aβ 1-40 in 2.7 nM of [^3H]PIB (or another ^3H-labeled radioligand when so mentioned) in phosphate buffer at pH 7.5, by adding various concentrations of non-radioactive compounds originally dissolved in DMSO. The binding mixture was incubated for 30 min at room temperature, followed by vacuum filtration, and subsequentially by washing twice with 1% Triton-X100. Scintillation fluid was thereafter added to the collected Aβ 1-40 on the filter plate, and the activity of the bound remaining radioligand ([^3H]PIB or another ^3H-labeled radioligand) was measured using 1450 Microbeta from PerkinElmer (FIG. 1). Specific binding was determined according to the competion binding assay described herein. The determined IC50's in the competion binding assays (using [^3H]PIB as radioligand) of 5 compounds of the present invention are shown in Table 2.

[1] = molecular target: T2, human synthetic Aβ 1-40 fibrils (Homo sapiens, UniProt P05067); assay: Saturation binding experiments; conditions: amyloid Aβ 1-40 fibrils in vitro, AVG; for Kd: two site binding
T2 construct: human synthetic Aβ 1-40 fibrils
Method: Saturation binding experiments were performed in 96-well polypropylene deep well plates. 2 μM human synthetic Aβ 1-40 fibrils in phosphate buffer pH 7.5, or buffer alone as control, were incubated with increasing concentration of a ^3H-labeled radioligand of the present invention for 1 hr at room temperature. The radioactivity still bound to the Aβ 1-40 fibrils at the end of the incubation was detected on FB filters after filtration in a Brandel apparatus using a wash buffer containing 0.1% Triton-X100. Results were corrected for nonspecific, nondisplaceable binding defined as the number of counts from wells without Aβ 1-40 fibrils (replaced with assay buffer).

[2] = cited from earlier work
[3] = [3H]PIB as radioligand, Table 2

T2 sequence (P05067 672-711 limits assumed): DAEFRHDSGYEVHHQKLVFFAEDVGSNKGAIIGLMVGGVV
T1 sequence (P05067 672-711 limits assumed): as above

With `COc1ccc2nc(-c3ccc(N(C)C)nc3)oc2c1` [Example 1, 5-(6-Methoxy-1,3-benzoxazol-2-yl)-N,N-dimethylpyridin-2-amine] the IC50 (synthetic Aβ 1-40; [3]) was 204 nM.

Work on `CN(C)c1ccc(-c2nc3ccc(O)cc3o2)cn1` [Example 2, 2-[6-(Dimethylamino)pyridin-3-yl]-1,3-benzoxazol-6-ol] yielded an IC50 (synthetic Aβ 1-40; [3]) of 85 nM.

Molecule `CNc1ccc(-c2nc3ccc(OC)cc3o2)cn1` [Example 3, 5-(6-Methoxy-1,3-benzoxazol-2-yl)-N-methylpyridin-2-amine] has an IC50 (synthetic Aβ 1-40; [3]) of 186 nM.

Molecule `COc1ccc2nc(-c3ccc(N(C)C(C)=O)nc3)oc2c1` [Example 4, N-[5-(6-Methoxy-1,3-benzoxazol-2-yl)pyridin-2-yl]-N-methylacetamide] has an IC50 (synthetic Aβ 1-40; [3]) of 15700 nM.

With `CNc1ccc(-c2nc3ccc(O)cc3o2)cn1` [Example 5, 2-[6-(Methylamino)pyridin-3-yl]-1,3-benzoxazol-6-ol] the IC50 (synthetic Aβ 1-40; [3]) was 182 nM, the IC50 (synthetic Aβ 1-40; amyloid Aβ 1-40 fibrils in vitro, AVG) was 182 nM and the “Bmax 1” value ([1]; site 1) was 0.9099 pmol/nmol Ab. The “Bmax 2” value ([1]; site 2) was 4.298 pmol/nmol Ab, the Kd ([1]; site 1, read-out: Kd 1) was 5.33 nM and the Kd ([1]; site 2, read-out: Kd 2) was 63.3 nM.

In the case of `CN(C)c1ccc(-c2nc3ccc(I)cc3o2)cc1` [IBOX], the brain entrance ([2]; compared with TZDM) is given as “relatively higher brain entrance” and the “clearance from normal brain tissue” value ([2]; compared with related analogues) is given as “relatively more rapid clearance from normal brain tissue”.

— patent publication US7670591B2, “Heteroaryl substituted benzoxazoles” (AstraZeneca AB, priority 2006, dated 2010)
